Data: PMC8795149, “Characterization of a novel non-steroidal glucocorticoid receptor agonist optimized for topical treatment” (Scientific Reports, 2022)

Assays:
[1] = test system: minipig skin; experiment: Local tolerance study in minipigs (skin atrophy); assay type: in vivo; conditions: for Discoloration of application sites: 4 weeks topical; for Reduction in epidermal thickness: 4 weeks, vs untreated and vehicle controls
Procedure: 5 male Göttingen SPF minipigs (5–7 months old; body weight 12–15 kg) were obtained from Ellegaard Göttingen Minipigs A/S, Dalmose, Denmark.
Each animal was treated for 6 h daily over 28 days with 25 µL of the following topical formulations on an application area of 2.5 cm × 2.5 cm: Vehicle (transcutol:acetone (1:9) with 10% hydroxy-propyl-cellulose); Dermovate cream (CP 0.05%), CP 0.05% in vehicle; Betnovate cream (BMV 0.1%); BMV 0.1% in vehicle; LEO 134310 2% in vehicle. One test field on each animal remained untreated.
Formulations were spread uniformly over the indicated clipped area and covered with porous gauze dressing. At the end of each exposure period all application site as well as the untreated area were rinsed with a mild soap (Abena Mild cream soap, Abena A/S, Denmark) in water and dried with a paper towel.
Skin biopsies were taken from anaesthetized animals 24 h after the last treatment. Samples for histopathological examination were fixed in phosphate buffered neutral 4% formaldehyde and stained with H&E. Mean arithmetic epidermal thickness was determined by measuring epidermal area, excluding stratum corneum, and dividing this area with the length of the epidermis. All measurements were performed on H&E stained and scanned slides using the Visiopharm software.

[2] = molecular target: T1, GR (Homo sapiens, UniProt P04150); experiment: Transactivation assay, MMTV promoter luciferase in HeLa cells; assay type: cell-based; design: endogenous in cells; host or cells: HeLa (ATCC) stably expressing MMP1- or MMTV-promoter luciferase; conditions: for EC50: 20 h, geometric mean
T1 sequence (P04150 1-777): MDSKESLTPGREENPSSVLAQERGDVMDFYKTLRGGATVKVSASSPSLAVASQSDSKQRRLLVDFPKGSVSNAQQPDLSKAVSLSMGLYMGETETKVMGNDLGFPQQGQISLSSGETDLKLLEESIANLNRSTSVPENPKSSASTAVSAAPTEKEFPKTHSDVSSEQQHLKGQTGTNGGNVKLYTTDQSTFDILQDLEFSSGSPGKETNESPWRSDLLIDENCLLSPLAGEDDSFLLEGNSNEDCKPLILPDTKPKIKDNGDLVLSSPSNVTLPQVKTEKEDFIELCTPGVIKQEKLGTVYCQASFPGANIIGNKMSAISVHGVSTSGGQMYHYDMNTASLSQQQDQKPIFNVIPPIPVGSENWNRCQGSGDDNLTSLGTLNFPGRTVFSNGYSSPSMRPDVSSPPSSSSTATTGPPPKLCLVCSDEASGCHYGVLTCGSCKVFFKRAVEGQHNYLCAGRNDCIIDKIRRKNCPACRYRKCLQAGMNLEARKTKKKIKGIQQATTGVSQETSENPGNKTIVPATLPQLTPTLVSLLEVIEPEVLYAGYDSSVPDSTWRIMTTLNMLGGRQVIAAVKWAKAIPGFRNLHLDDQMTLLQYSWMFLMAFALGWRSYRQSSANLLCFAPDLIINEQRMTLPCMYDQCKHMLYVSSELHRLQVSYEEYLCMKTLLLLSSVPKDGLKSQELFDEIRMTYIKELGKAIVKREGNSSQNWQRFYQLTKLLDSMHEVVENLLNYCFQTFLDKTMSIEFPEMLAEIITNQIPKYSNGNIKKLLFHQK
Procedure: A HeLa cell line stably expressing luciferase under the control of the mouse mammary tumour virus (MMTV) promoter was generated. When the GR is activated by addition of a GR agonist, it forms a homodimer and binds to the MMTV promoter, t inducing transcription of the luciferase reporter gene. Briefly, cells were incubated with test compounds in culture medium containing charcoal-filtered fetal bovine serum for 20 h 37 °C 5% CO2. Finally, luciferase activity was detected luminometrically after addition of specific substrate to the cells.
(§1) IC50 of test compounds was determined by 10-point titrations in duplicates. IC50 values and other parameters were calculated by sigmoidal curve fitting in Assay Explorer.

[3] = test system: LPS-induced TNF-alpha release in PBMCs; experiment: TNF-alpha inhibition assay, pig PBMCs; assay type: cell-based; conditions: for EC50: geometric mean
Procedure: PMBCs were isolated from human buffy coats or animal whole blood (EDTA-treated). Buffy coats from anonymized healthy adult blood donors were obtained from the Blood Bank of the National University Hospital Copenhagen in accordance with national legislation. Whole blood from mice (obtained from Charles River) was sampled at the animal facility at LEO Pharma and whole blood from pigs was sourced from ScanTox. Test compounds and PBMCs were incubated with 1 µg/ml LPS (Sigma) overnight at 37 °C in HEPES and Glutamax-containing RPMI medium supplemented with either 0.5% human serum albumin (human PBMCs) or 10% fetal bovine serum (mouse and pig PBMCs) and penicillin/streptomycin. TNF-alpha was measured using AlphaLISA (Perkin Elmer).
as §1

[4] = test system: TPA-induced skin inflammation; experiment: TPA-induced skin inflammation in mice, efficacy; assay type: in vivo; conditions: TPA mouse model; for Ear biopsy weight ID50 (API concentration in formulation) / Ear biopsy weight Imax: topical, CV (%) in brackets
Procedure: Female Balb/c mice of 7 to 8 weeks old were obtained from Charles River, Germany and acclimatized for at least 1 week. Skin inflammation was induced by repeated topical application of TPA (20 μL of 0.01% TPA in acetone; 10 μL to each side of ear) on days 1, 3, 5, 8 and 10.
Treatments were performed by topical application of either vehicle (90% acetone, 10% transcutol), Treatments were applied twice daily on days 8, 9, 10, and once on day 11 (20–10 μL to each side of ear) with at least 5 h between the first and second treatment. TPA challenge on days 8 and 10 was performed at least 1 h after the first treatment. On day 11, animals were sacrificed 2 h after the last dosing. Blood was sampled by cardiac puncture from animals anaesthetized with isoflurane. Thereafter, ear biopsies were taken with a biopsy punch (8 mm diameter), weighed and stored at – 80 °C. Plasma osteocalcin levels were analyzed by EIA (rat-MID, IDS, UK). Effective inhibitory doses (ID50) were determined from a sigmoid I(max) model in Phoenix64, Pharsight, Certara. Therapeutic Index (TI) was calculated either as ID50 for spleen weight reduction or ID50 for blood osteocalcin concentrations, divided by ID50 for ear weight reduction.
RNA was extracted from biopsies and qPCR was performed using TaqMan gene expression assays (Fkbp5-Mm00487406_m1, Tsc22d3 (Gilz)-Mm00726417_s1, Actb-Mm00607939_s1, Pgk1-Mm00435617_m1, Tbp-Mm00446971_m1, Ubc-Mm02525934_g1). Gene expression of Fkbp5 and Tsc22d3 (Gilz) was normalized to the geometric mean of the reference genes Actb, Pgk1, Tbp and Ubc.

[5] = CP 0.05%, BMV 0.1%, 6 h daily semi-occlusion

Row | Compound | Discoloration of application sites [1] | Reduction in epidermal thickness [1, 5] | Emax ([2]; MMTV promoter, HeLa cells) | EC50 ([2]; MMTV promoter, HeLa cells) | Emax ([3]; Sus scrofa, PBMC) | EC50 ([3]; Sus scrofa, PBMC) | Ear biopsy weight ID50 (API concentration in formulation) [4] | Ear biopsy weight Imax [4] | Reduction in epidermal thickness ([1]; LEO 134310 2%, 6 h daily) | Transactivation Emax ([2]; MMTV promoter, HeLa cells) | Transactivation EC50 relative to concentration needed for transrepression ([2]; higher concentration than needed for transrepression) | Inhibition of LPS-induced TNF-alpha release Emax [3] | EC50 [3] | Less potent than BMV, reduction in ear biopsy weight [4] | Less potent than CP, reduction in ear biopsy weight [4]
1 | CCCCC(=O)O[C@]1(C(=O)CO)[C@@H](C)C[C@H]2[C@@H]3CCC4=CC(=O)C=C[C@]4(C)[C@@]3(F)[C@@H](O)C[C@@]21C [BMV, Betamethasone Valerate] | notable discoloration was observed in most application sites | 30–40% | 120% | 2.6 nM | 99% | 1.5 nM | 5.1 (73) µg/mL | 69 (17) % | – | – | – | – | – | – | –
2 | CCC(=O)O[C@]1(C(=O)CCl)[C@@H](C)C[C@H]2[C@@H]3CCC4=CC(=O)C=C[C@]4(C)[C@@]3(F)[C@@H](O)C[C@@]21C [CP, Clobetasol Propionate] | notable discoloration was observed in most application sites | 30–40% | 110% | 0.25 nM | 95% | 0.38 nM | 1.5 (69) µg/mL | 67 (14) % | – | – | – | – | – | – | –
3 | C[C@H](NC(=O)[C@H]1CCCO1)[C@H](Oc1ccc(C(=O)O[C@H]2CCCN(C(=O)[C@H]3COC(=O)C3)C2)cc1)c1ccc(C2CC2)cc1 [LEO 134310] | – | – | – | 410 nM | – | – | 500 (250) µg/mL | 64 (39) % | did not result in any significant reduction in epidermal thickness | 95% | more than 300 fold | 96% | 3.2 nM | ~100 fold | approximately 300 fold
